Results on 1 compound are retold here after publication PMC3970082 (FEBS Open Bio, 2014).

The assay has as its target T1, 5-aminopentaneamide amide hydrolase (Pseudomonas sp. TPU-A5, UniProt W6JNP2).
T1 sequence (W6JNP2 1-504): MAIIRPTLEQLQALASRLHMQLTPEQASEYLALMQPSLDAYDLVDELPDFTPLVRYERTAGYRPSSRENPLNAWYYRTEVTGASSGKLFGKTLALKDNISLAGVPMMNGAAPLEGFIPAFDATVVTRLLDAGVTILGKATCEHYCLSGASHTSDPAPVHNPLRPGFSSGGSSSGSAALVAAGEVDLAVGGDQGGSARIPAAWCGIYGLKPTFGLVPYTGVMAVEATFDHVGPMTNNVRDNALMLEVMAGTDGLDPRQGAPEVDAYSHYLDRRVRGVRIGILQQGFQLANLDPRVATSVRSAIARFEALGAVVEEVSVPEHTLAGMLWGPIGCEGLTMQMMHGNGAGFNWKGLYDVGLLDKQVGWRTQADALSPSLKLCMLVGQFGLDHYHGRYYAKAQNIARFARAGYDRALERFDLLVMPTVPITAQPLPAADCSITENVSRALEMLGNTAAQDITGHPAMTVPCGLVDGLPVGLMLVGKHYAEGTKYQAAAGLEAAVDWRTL
The assay can be described thus: ammonia liberation. The settings on record: room temperature; purified fractions of native enzyme. Format: biochemical.

SMILES strings stand for the structures.

For the compound `CCCCC(N)=O` [valeramide], the “ammonia liberation (indophenol reaction)” value was “assayed at room temperature by measuring the ammonia liberated from valeramide degradation”.
